According to patent US20140323522A1, “Method of Treating Cancer” (Exelixis, Inc., priority 2011, published 2014):

Experiments:
mature OCs = test: in vitro osteoclast (OC) activity assay (bone resorption by mature OCs); type: cell-based, human; conditions: day 10
[1] = test system: proteins related to the VEGF pathway (VEGF, NRP-1, HIF1α); test: IHC and single quantum-dot labeling of ARCaPM tumors in tibia sections, VEGF pathway proteins; type: in vivo, nude mice; conditions: 10 mg/kg or 30 mg/kg, 7 weeks, vs vehicle
Mouse KS482 cells [2] = test: in vitro osteoblast (OB) differentiation assay; type: cell-based; conditions: day 8
oral bioavailability = conditions: in vivo
[3] = test system: CD34+ cells derived from human bone marrow; test: in vitro osteoclast (OC) differentiation assay; type: cell-based; conditions: day 7
[4] = test system: pancreatic neuroendocrine tumor; test: murine pancreatic neuroendocrine tumor model; conditions: mouse, in vivo
[5] = phase 1 clinical study, tolerability
[6] = test system: castration-resistant prostate cancer (CRPC) with bone metastases; test: Phase 2 trial (NCT00940225) case studies of CRPC patients with bone metastases treated with compound 1; type: in vivo, human
Excerpt: All patients provided informed consent before study screening.

xenograft tumor models = test: xenograft tumor models; conditions: in vivo
[7] = test system: endothelial cells and tumor cells; test: apoptosis of endothelial cells and tumor cells
Mouse KS482 cells [8] = test: in vitro osteoblast (OB) bone-forming activity assay; type: cell-based
Human CRPC ARCaPM cells = test: ARCaPM in vivo efficacy study (intratibial xenografts); set-up: species or system nude mice
Procedure: Micro-CT-based quantification (Scanco 40 instrument) of 5 tibiae per group with 2 measurements each were used. ([…]) indicates vehicle tibia lacking detectable tumor in the section evaluated by histology. […] Bioquant® Image Analysis software was used for the histomorphometry of H&E-stained sections. Tumor (8A) and bone area (8B) were measured in the evaluated sections by tracing their outline within an area of 1×1 mm^2 (total tissue area) near the center of the growth plate. Percentages relative to the total tissue area were calculated. […] Bioquant® Image Analysis software was used for the histomorphometry of consecutive H&E- and TRAP-stained sections. (9A) Based on TRAP stain, OC numbers were counted along the border of the trabecular bone within the same tissue area used to assess tumor and bone area (FIG. 8). The ratio of OCs per bone perimeter (OC/mm) was calculated. (9B) OBs were counted along the trabecular bone surface in the same area on the H&E-stained sections and the number of OBs per bone perimeter (0 B/mm) was calculated. ([…]) indicates vehicle-treated mice without detectable tumor in the corresponding tumor area analysis (FIG. 8A). (A) indicates compound 1-treated mice with detectable tumor in the corresponding tumor area analysis (FIG. 8A).

[9] = 10 mg/kg or 30 mg/kg, 7 weeks, compared to vehicle
[10] = 10 mg/kg or 30 mg/kg, 7 weeks, relative to vehicle

COc1cc2nccc(Oc3ccc(NC(=O)C4(C(=O)Nc5ccc(F)cc5)CC4)cc3)c2cc1OC [Compound 1, N-(4-{[6,7-bis(methyloxy)quinolin-4-yl]oxy}phenyl)-N′-(4-fluorophenyl)cyclopropane-1,1-dicarboxamide]
ability of mature OCs to resorb bone (secreted CTX normalized to TRACP 5b) (mature OCs): does not affect | IHC staining of proteins related to the VEGF pathway (VEGF, NRP-1, HIF1α) in ARCaPM tumors [1]: decreased IHC staining | OB differentiation (cellular ALP activity) (Mouse KS482 cells [2]): biphasic effects | oral bioavailability (oral bioavailability): orally bioavailable | OC differentiation (secreted TRACP 5b levels) [3]: inhibits in vitro osteoclast (OC) differentiation in a dose-dependent manner | overall survival [4]: substantially improves | tumor invasiveness and metastasis [4]: significantly reduces | most commonly observed adverse events [5]: fatigue, diarrhea, anorexia, rash, and palmar-plantar erythrodysesthesia | tolerability [5]: generally well-tolerated | Hemoglobin (best response, change) ([6]; Patient 1, 100 mg dose): +1.4 g/dL | Pain (best response) ([6]; Patient 1, 100 mg dose): Improvement | Tumor response (best response) ([6]; Patient 1, 100 mg dose): −41% | tALP (best response, change) ([6]; Patient 1, 100 mg dose): −77% | increase in hemoglobin compared with baseline ([6]; Patient 1, Week 2): 1.4 g/dL | CT scan response category ([6]; Patient 1, Week 6): partial response (PR) | CT scan, decrease in measurable target lesions ([6]; Patient 1, Week 6): 33% | bone scan, radiotracer uptake by bone metastases ([6]; Patient 1, Week 6): dramatic decrease in radiotracer uptake | bone lesions on bone scan ([6]; Patient 1, Week 12): near complete resolution of bone lesions | decrease in target lesions ([6]; Patient 1, Week 12, stable through Week 18): 44% | adverse event leading to withdrawal ([6]; Patient 1, Week 18): Grade 3 diarrhea | PSA level ([6]; Patient 1, Week 18 (430 ng/mL at baseline)): 93.5 ng/mL | serum tALP level ([6]; Patient 1, Week 18 (689 U/L at baseline)): 159 U/L | bone pain ([6]; Patient 1, four weeks after start): significant reduction in bone pain | Bone scan (best response) ([6]; Patient 2, 100 mg dose): Improvement | Hemoglobin (best response, change) ([6]; Patient 2, 100 mg dose): +1.8 g/dL | Pain (best response) ([6]; Patient 2, 100 mg dose): Pain-free | Tumor response (best response) ([6]; Patient 2, 100 mg dose): −20% | tALP (best response, change) ([6]; Patient 2, 100 mg dose): −6% | bone pain ([6]; Patient 2, Week 4): reduction in bone pain | CT scan, decrease in target lesions ([6]; Patient 2, Week 6): 13% | bone scan, radiotracer uptake by bone lesions ([6]; Patient 2, Week 6): slight flair in radiotracer uptake | bone scan, radiotracer uptake ([6]; Patient 2, Week 12): substantial reduction of radiotracer uptake | decrease in measurable disease ([6]; Patient 2, Week 12): 20% | increase in hemoglobin compared with baseline ([6]; Patient 2, Week 12): 1.8 g/dL | Hemoglobin (best response, change) ([6]; Patient 3, 100 mg dose): +2.2 g/dL | PSA (best response, change) ([6]; Patient 3, 100 mg dose): −57% | Pain (best response) ([6]; Patient 3, 100 mg dose): Pain-free | Tumor response (best response) ([6]; Patient 3, 100 mg dose): −51% | tALP (best response, change) ([6]; Patient 3, 100 mg dose): −77% | increase in hemoglobin compared with baseline ([6]; Patient 3, Week 2): 2.2 g/dL | CT scan, decrease in measurable target lesions ([6]; Patient 3, Week 6): 43% | bone scan, radiotracer uptake ([6]; Patient 3, Week 6): dramatic reduction in radiotracer uptake | bone lesions on bone scan ([6]; Patient 3, Week 12): complete resolution of bone lesions | decrease in measurable disease ([6]; Patient 3, Week 12): 51% | PSA level ([6]; Patient 3, Week 18 (2.4 ng/mL at screening)): 1.2 ng/mL | serum tALP level ([6]; Patient 3, Week 18 (869 U/L at baseline)): 197 U/L | pain ([6]; Patient 3, after three weeks): complete resolution of pain | tumor growth in xenograft tumor models (xenograft tumor models): causes tumor regression | apoptosis of endothelial cells and tumor cells [7]: rapidly induces apoptosis | OB bone forming activity (organic and inorganic bone matrix) (Mouse KS482 cells [8]): biphasic effects | osteoblasts (OBs) along the trabecular bone, tibia sections (Human CRPC ARCaPM cells; [9]): increased OBs | osteoclasts (OCs) along the trabecular bone, tibia sections (Human CRPC ARCaPM cells; [9]): no change in OCs | bone mineral density, micro-CT (Human CRPC ARCaPM cells; [10]): preserves | bone volume/tissue volume (BV/TV), micro-CT (Human CRPC ARCaPM cells; [10]): preserves | progression of CRPC ARCaPM tumor xenografts in bone (X-ray, micro-CT of tibiae) (Human CRPC ARCaPM cells; 30 mg/kg, 7 weeks of treatment, vs vehicle): blocks progression | progression of CRPC ARCaPM tumor xenografts in bone (H&E stain of tibia sections) (Human CRPC ARCaPM cells; 7 weeks of treatment, vs vehicle): blocks progression
